In publication PMC7450057, “Enhancing intracellular accumulation and target engagement of PROTACs with reversible covalent chemistry” (Nature Communications, 2020):
“And” between values parts separate entries of the source, which are not always exact repeats. Equal values may be shown once. Read-outs that look alike come from different tables or passages of the source.

What was measured:
MOLM-14 cells = assay: AlamarBlue cell viability assay, MOLM-14; settings: for MOLM-14 Cell Viability%: Figure 2f, 5 replicates
Description: (§1) The IC50 was calculated using GraphPad Prism software with a four-parameter dose-response curve fit.

BTK-NanoLuc fusion = biological target: T1, BTK-NanoLuc fusion (Homo sapiens, UniProt Q06187); assay: NanoBRET BTK in-cell target engagement assay; type: cell-based; settings: for NanoBRET(%): Figure 3d, triplicates
T1 construct: host or cells: HEK 293T/17
T1 sequence (Q06187 whole entry, the tested form may be a part): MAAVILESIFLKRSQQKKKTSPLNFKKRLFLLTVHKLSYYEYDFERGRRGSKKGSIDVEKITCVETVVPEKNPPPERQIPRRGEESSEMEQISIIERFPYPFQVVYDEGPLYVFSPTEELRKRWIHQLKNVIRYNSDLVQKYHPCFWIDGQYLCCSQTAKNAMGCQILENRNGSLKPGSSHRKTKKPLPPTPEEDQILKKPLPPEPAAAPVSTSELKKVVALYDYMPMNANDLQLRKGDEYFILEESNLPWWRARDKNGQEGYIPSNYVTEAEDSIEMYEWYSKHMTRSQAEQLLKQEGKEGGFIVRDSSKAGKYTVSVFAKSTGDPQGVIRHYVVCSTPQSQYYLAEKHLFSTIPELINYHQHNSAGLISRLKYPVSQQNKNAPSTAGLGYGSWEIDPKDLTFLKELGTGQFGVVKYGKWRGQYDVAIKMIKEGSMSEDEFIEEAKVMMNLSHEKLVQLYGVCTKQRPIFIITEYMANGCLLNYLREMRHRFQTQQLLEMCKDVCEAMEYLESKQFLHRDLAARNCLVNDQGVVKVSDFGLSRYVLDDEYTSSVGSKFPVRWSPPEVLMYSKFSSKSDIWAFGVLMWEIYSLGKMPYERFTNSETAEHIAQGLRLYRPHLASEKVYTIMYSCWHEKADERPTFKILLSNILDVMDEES
Description: The target engagement assay for BTK or CRBN was from Promega (BTK kit, Cat. No. N2500; CRBN kit, Cat. No. CS1810C136) and was performed according to the manufacture’s instruction with some modifications. Briefly, HEK 293/T17 cells (ATCC) were transiently transfected with BTK-NanoLuc® fusion vector or NanoLuc®-CRBN fusion vector (Promega) in 0.125 M CaCl2 and 1x HBS. Forty-eight hours after transfection, the cells were resuspended in Opti-MEM medium (Life Technologies, Cat. No. 11058021) at the density of 2 × 10^5 cells per mL and were plated into 96-well plates (Corning, Cat. No. CLS3600). Cells were incubated with 1.0 µM (BTK) or 0.5 µM (CRBN) NanoBRET™ Tracer and serially diluted unlabeled BTK PROTAC compounds (from 10 to 0.0032 µM, 5-fold dilution) for 2 h at 37 °С with 5% CO2 in an incubator. After 2 h incubation, the 3X Nano-Glo® Substrate with NanoLuc® extracellular inhibitor were added to cells and developed for 3 min at room temperature. BRET signals were collected using a BioTek SYNERGY H1 microplate reader equipped with a 450/80-nm BP filter for donor emission and a 610-nm LP filter for acceptor emission. BRET Ratio was calculated with the equation: [(Acceptor sample/Donor sample)–(Acceptor no tracer control/Donor no tracer control)] × 1000. The IC50 of the compound against its BTK or CRBN tracer was calculated using GraphPad Prism software.

BTK [1] = biological target: BTK (Mus musculus, UniProt P35991); assay: BTK degradation in mouse B-cell lymphoma cell line derived from Eu-Myc mice; type: cell-based; design: endogenous in cells; host or cells: B cell lymphoma cell line derived from Eu-Myc mice; settings: Supplementary Figure 10, replicates, DMSO about 100
Chain of BTK (Mus musculus, UniProt P35991) (P35991 whole entry): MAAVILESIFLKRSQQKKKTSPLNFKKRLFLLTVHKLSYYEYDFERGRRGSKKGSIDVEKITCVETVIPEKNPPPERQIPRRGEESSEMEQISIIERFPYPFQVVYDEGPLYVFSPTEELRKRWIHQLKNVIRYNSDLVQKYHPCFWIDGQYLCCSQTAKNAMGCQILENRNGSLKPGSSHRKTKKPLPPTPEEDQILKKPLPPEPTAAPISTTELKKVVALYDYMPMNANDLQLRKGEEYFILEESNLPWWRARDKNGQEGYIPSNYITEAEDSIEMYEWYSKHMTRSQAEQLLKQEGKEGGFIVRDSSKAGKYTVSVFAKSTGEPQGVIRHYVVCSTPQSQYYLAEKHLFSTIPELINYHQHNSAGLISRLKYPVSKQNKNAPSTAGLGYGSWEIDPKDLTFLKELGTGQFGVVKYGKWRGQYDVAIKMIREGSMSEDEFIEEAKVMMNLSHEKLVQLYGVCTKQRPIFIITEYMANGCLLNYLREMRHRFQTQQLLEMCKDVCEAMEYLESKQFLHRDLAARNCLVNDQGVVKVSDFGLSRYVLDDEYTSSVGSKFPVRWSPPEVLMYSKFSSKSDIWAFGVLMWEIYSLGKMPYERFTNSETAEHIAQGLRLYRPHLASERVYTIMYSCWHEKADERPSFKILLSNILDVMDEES
Description: MOLM-14 cell line was obtained from Dr. Conneely at Baylor College of Medicine, and the Mino cells were purchased from the American Type Culture Collection (ATCC, Cat. No. CRL-3000). Both cell lines were cultured in RPMI 1640 medium (Thermo Fisher Scientific, Cat. No. MT10040CV) supplemented with 10% fetal bovine serum (GE Healthcare, Cat. No. SH30071.03) and 1% Pen/Strep (Thermo Fisher Scientific, Cat. No. 15140163). The wild-type and C481S BTK XLA cell lines were gifts from Dr. Woyach at The Ohio State University and were cultured in RPMI 1640 medium with 15% fetal bovine serum, 1% Pen/Strep, and 1.0 µg/ml puromycin (Thermo Fisher Scientific, Cat. No. A1113803). HEK 293T/17 cells were purchased from ATCC (Cat. No. CRL-11268) were maintained in DMEM (Thermo Fisher Scientific, Cat. No. MT10013CV) with 10% fetal bovine serum and 1% Pen-Strep. The B cell lymphoma cell line derived from Eu-Myc mice was a gift from Dr. Yulin Li at Houston Methodist Research Institute and cultured in RPMI 1640 medium supplemented with 15% (v/v) fetal bovine serum (FBS), 100 U/mL penicillin, 100 μg/mL streptomycin, and 0.05 mM beta-mercaptoethanol and puromycin (1 μg/mL). Cells were grown at 37 °C with 5% CO2.
The collected cells and spleen tissues were lysed in RIPA lysis buffer (50 mM Tris-HCl, pH 7.4, 150 mM NaCl, 1% NP-40, 0.5% sodium deoxycholate, 0.1% SDS) supplemented with Halt™ Protease and Phosphatase Inhibitor Cocktail (Thermo Fisher Scientific, Cat. No. PI78440) immediately before use. Lysates were centrifuged at 15,000 × g for 10 min at 4 °C and the supernatant was quantified for total protein concentration using the Pierce BCA Protein Assay (Thermo Fisher Scientific, Cat. No. 23225). Thirty micrograms of protein were loaded onto sodium dodecyl sulfate−polyacrylamide gel for electrophoresis (Bio-Rad) and transferred onto PVDF membranes (Millipore, Cat. No. IPVH00010). […] Imaging was performed using the ECL Prime chemiluminescent western blot detection reagents (GE Healthcare, Cat. No. RPN2232) by visualization of the blots to X-Ray film or with an Imager (Kindle Biosciences, Cat. No. D1001). All western blots were subsequently processed and quantified with Imager software. Protein level was normalized to β-actin or GAPDH loading controls.

Mino cells = assay: AlamarBlue cell viability assay, Mino; type: cell-based; settings: for Mino Cell Viability%: Figure 2f, 5 replicates; for IC50: Mino cells, 72 h, Alamar Blue
Description: as §1

BTK [2] = biological target: BTK (Homo sapiens, UniProt Q06187); assay: BTK degradation in MOLM-14 cells (western blot); type: cell-based; design: endogenous in cells; host or cells: MOLM-14; settings: Figure 2b, duplicates
Chain of BTK (Homo sapiens, UniProt Q06187) (Q06187 whole entry): as the sequence (Q06187 whole entry, the tested form may be a part) above

NanoBRET(%) (BTK-NanoLuc fusion; 1.00E-05 M)	NanoBRET(%) (BTK-NanoLuc fusion; 1.60E-08 M)	NanoBRET(%) (BTK-NanoLuc fusion; 2.00E-06 M)	NanoBRET(%) (BTK-NanoLuc fusion; 3.20E-09 M)	NanoBRET(%) (BTK-NanoLuc fusion; 4.00E-07 M)	NanoBRET(%) (BTK-NanoLuc fusion; 8.00E-08 M)	Structure (SMILES)	MOLM-14 Cell Viability% (MOLM-14 cells; 1.00E-05 M)	MOLM-14 Cell Viability% (MOLM-14 cells; 1.60E-08 M)	MOLM-14 Cell Viability% (MOLM-14 cells; 2.00E-06 M)	MOLM-14 Cell Viability% (MOLM-14 cells; 3.20E-09 M)	MOLM-14 Cell Viability% (MOLM-14 cells; 4.00E-07 M)	MOLM-14 Cell Viability% (MOLM-14 cells; 6.40E-10 M)	MOLM-14 Cell Viability% (MOLM-14 cells; 8.00E-08 M)	Mino Cell Viability% (Mino cells; 1.00E-06 M)	Mino Cell Viability% (Mino cells; 1.60E-09 M)	Mino Cell Viability% (Mino cells; 2.00E-07 M)	Mino Cell Viability% (Mino cells; 3.20E-10 M)	Mino Cell Viability% (Mino cells; 4.00E-08 M)	Mino Cell Viability% (Mino cells; 5.00E-06 M)	Mino Cell Viability% (Mino cells; 8.00E-09 M)	also measured
8.881% and 7.144% and 4.414%	91.6984% and 97.1324% and 98.4487%	18.1369% and 17.2809% and 19.5819%	100.618% and 96.0652% and 96.5159%	66.8491% and 61.8713% and 67.4598%	83.5249% and 103.088% and 96.5333%	Nc1ncnc2c1c(-c1ccc(Oc3ccccc3)cc1)nn2C1CCN(CCOCCOCC(=O)Nc2ccc3c(c2)C(=O)N(C2CCC(=O)NC2=O)C3=O)CC1 (stereo not drawn) [MT-802, reference compound]	30.9193% and 24.2086% and 26.5576% and 19.8014% and 27.7094%	94.0978% and 96.8402% and 91.572% and 84.5934% and 78.4642%	75.5166% and 72.09% and 75.4424% and 57.762% and 72.8197%	96.9942% and 95.4205% and 85.785% and 84.5706% and 80.2089%	88.0029% and 82.2386% and 86.6288% and 76.8507% and 80.4769%	81.9593% and 80.8361% and 77.1985% and 75.6192% and 75.9328%	97.8209% and 89.394% and 93.0772% and 82.672% and 84.7872%	55.7423% and 49.4302% and 55.3437% and 39.2835% and 54.1265%	110.483% and 109.05% and 93.6147% and 92.6129% and 76.2619%	89.5862% and 87.1949% and 82.8432% and 61.1711% and 66.0828%	84.5559% and 99.9483% and 73.8491% and 92.4729% and 74.9908%	100.53% and 96.2968% and 92.2144% and 82.8217% and 85.9885%	34.2209% and 40.5007% and 48.9347% and 30.3001% and 41.1685%	99.2266% and 99.1512% and 91.8158% and 60.6002% and 61.5373%	IC50 (MOLM-14 cells; Homo sapiens, MOLM-14, 72 h, read-out: Cell viability IC50, MOLM-14 cells, 72 h, Alamar Blue): 4.7 µM; IC50 (BTK-NanoLuc fusion; HEK-293 cells, BTK tracer 1.0 µM, experiment of Fig. 3d, read-out: BTK target engagement IC50): 660 nM; BTK quantification (anti-BTK / anti-β-actin) (BTK [1]; 8 nM): 79.5706 and 82.6481; BTK quantification (anti-BTK / anti-β-actin) (BTK [1]; 40 nM): 47.7374 and 48.0125; BTK quantification (anti-BTK / anti-β-actin) (BTK [1]; 200 nM): 22.5968 and 20.4165; IC50 (Mino cells; Homo sapiens): 1000 nM; Quantification anti-BTK / anti-β-actin (BTK level vs DMSO) (BTK [2]; 8 nM): 79.5706 and 82.6481; Quantification anti-BTK / anti-β-actin (BTK level vs DMSO) (BTK [2]; 40 nM): 47.7374 and 48.0125; Quantification anti-BTK / anti-β-actin (BTK level vs DMSO) (BTK [2]; 200 nM): 22.5968 and 20.4165
22.6421% and 28.6973% and 22%	88.8537% and 90.4209% and 91.9881%	21.3125% and 25.7571% and 22.7507%	94.8868% and 96.3909% and 104.805%	28.4685% and 42.1101% and 35.114%	85.0919% and 75.63% and 91.5725%	Cc1c(NC(=O)c2ccc(C(C)(C)C)cc2)cccc1-c1cn(C)c(=O)c(Nc2ccc(C(=O)N3CCN(CCCCCCNC(=O)CNc4cccc5c4C(=O)N(C4CCC(=O)NC4=O)C5=O)CC3)cc2)n1 (stereo not drawn) [DD-03-171, reference compound]	97.5451% and 84.66% and 89.4149% and 67.5953% and 78.1969%	83.9791% and 92.5848% and 65.981% and 62.9872% and 76.0308%	93.025% and 80.0636% and 90.2426% and 67.3429% and 78.4493%	93.7588% and 71.6575% and 86.4445% and 88.7633% and 72.8844%	97.2809% and 75.3792% and 70.6831% and 69.0687% and 74.7981%	106.497% and 80.5215% and 63.4862% and 80.6741% and 69.8495%	102.353% and 96.782% and 97.1048% and 76.9172% and 82.8931%	32.4788% and 32.2293% and 34.0942% and 35.4207% and 39.7021%	121.168% and 104.266% and 118.227% and 107.943% and 119.96%	36.6289% and 34.2124% and 35.7227% and 37.3775% and 42.3025%	132.424% and 103.701% and 122.994% and 107.72% and 141.013%	54.0832% and 46.6234% and 39.8335% and 52.888% and 75.1359%	39.9385% and 37.4432% and 38.9273% and 39.4395% and 47.3326%	56.5785% and 60.1245% and 102.834% and 110.123% and 118.502%	IC50 (MOLM-14 cells; read-out: Cell viability IC50, MOLM-14 cells, 72 h, Alamar Blue): > 10 µM; IC50 (Mino cells): 50 nM
